From patent publication US20130172320A1, “PYRIDO [4,3-B] INDOLE AND PYRIDO [3,4-B] INDOLE DERIVATIVES AND METHODS OF USE” (priority 2010, published 2013)

Legend:
[1] = target: T1, human recombinant adrenergic α2B receptor (Homo sapiens, UniProt P18089); test: Adrenergic α2B radioligand binding ([3H]Rauwolscine); conditions: compound at 0.1 μM; read-out: Percentage inhibition of ligand binding, Adrenergic (0.1 μM) a2B
T1 construct: expressed in transfected cells; host or cells: Chinese hamster ovary (CHO) K1 cells
T1 sequence (P18089 1-450): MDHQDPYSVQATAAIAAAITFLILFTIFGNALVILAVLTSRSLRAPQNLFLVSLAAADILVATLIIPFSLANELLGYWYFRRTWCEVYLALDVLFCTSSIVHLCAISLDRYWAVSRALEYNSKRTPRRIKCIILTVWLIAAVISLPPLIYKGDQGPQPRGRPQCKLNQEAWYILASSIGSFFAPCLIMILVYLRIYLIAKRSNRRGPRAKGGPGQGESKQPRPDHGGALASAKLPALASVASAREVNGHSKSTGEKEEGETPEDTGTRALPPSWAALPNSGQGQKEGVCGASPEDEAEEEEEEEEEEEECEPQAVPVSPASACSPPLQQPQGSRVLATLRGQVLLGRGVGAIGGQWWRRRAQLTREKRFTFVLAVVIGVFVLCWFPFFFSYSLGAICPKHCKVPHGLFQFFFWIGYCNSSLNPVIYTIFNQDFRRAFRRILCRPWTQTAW
Experimental: To evaluate in radioligand binding assays the activity of compounds of the invention, human recombinant adrenergic α2B receptor expressed in Chinese hamster ovary (CHO) K1 cells (Uhlen, S. et al, Eur. J. Pharmacol. 343(1):93, 1998) in a modified Tris-HCl buffer (50 mM Tris-HCl, pH 7.4, 12.5 mM MgCl2, 1 mM EDTA, 0.2% BSA) was used. Compounds of the invention were incubated with 2.5 nM [^3H]Rauwolscine for 60 min at 25° C. Non-specific binding was estimated in the presence of 10 μM Prozosin. Receptor proteins were filtered and washed, the filters were then counted to determine [^3H]Rauwolscine specifically bound. Compounds were screened at 1 μM or lower, using 1% DMSO as vehicle. Biochemical assay results are presented as the percent inhibition of specific binding in Table 3.

[2] = target: T2, human recombinant adrenergic α2C receptor (Homo sapiens, UniProt P18825); test: Adrenergic α2C radioligand binding ([3H]MK-912); conditions: compound at 0.1 μM; read-out: Percentage inhibition of ligand binding, Adrenergic (0.1 μM) a2C
T2 construct: expressed in transfected cells; host or cells: insect Sf9 cells
T2 sequence (P18825 1-462): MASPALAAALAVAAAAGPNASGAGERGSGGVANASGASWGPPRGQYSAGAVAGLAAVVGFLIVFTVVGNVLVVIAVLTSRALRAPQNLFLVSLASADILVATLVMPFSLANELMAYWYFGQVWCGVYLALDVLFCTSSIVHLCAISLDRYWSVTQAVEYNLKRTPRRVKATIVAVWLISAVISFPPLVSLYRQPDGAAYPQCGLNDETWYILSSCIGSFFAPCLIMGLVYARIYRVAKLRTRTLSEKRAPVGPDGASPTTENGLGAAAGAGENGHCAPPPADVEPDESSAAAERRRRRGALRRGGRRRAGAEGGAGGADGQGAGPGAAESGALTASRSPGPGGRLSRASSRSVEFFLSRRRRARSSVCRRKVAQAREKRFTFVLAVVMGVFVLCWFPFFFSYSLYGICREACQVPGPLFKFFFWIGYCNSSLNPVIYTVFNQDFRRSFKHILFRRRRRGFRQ
Experimental: To evaluate in radioligand binding assays the activity of compounds of the invention, human recombinant adrenergic α2C receptor expressed in insect Sf9 cells (Uhlen, S. et al, J. Pharmacol. Exp. Ther. 271:1558, 1994) in a modified Tris-HCl buffer (50 mM Tris-HCl, pH 7.4, 12.5 mM MgCl2, 2 mM EDTA) was used. Compounds of the invention were incubated with 1 nM [^3H]MK-912 for 60 min at 25° C. Non-specific binding was estimated in the presence of 10 μM WB-4101. Receptor proteins were filtered and washed, the filters were then counted to determine [^3H]MK-912 specifically bound. Compounds were screened at 1 μM or lower, using 1% DMSO as vehicle. Biochemical assay results are presented as the percent inhibition of specific binding in Table 3.

[3] = target: T3, human recombinant adrenergic α2A receptor (Homo sapiens, UniProt P08913); test: Adrenergic α2A radioligand binding ([3H]MK-912); conditions: compound at 0.1 μM; read-out: Percentage inhibition of ligand binding, Adrenergic (0.1 μM) a2A
T3 construct: expressed in transfected cells; host or cells: insect Sf9 cells
T3 sequence (P08913 1-465): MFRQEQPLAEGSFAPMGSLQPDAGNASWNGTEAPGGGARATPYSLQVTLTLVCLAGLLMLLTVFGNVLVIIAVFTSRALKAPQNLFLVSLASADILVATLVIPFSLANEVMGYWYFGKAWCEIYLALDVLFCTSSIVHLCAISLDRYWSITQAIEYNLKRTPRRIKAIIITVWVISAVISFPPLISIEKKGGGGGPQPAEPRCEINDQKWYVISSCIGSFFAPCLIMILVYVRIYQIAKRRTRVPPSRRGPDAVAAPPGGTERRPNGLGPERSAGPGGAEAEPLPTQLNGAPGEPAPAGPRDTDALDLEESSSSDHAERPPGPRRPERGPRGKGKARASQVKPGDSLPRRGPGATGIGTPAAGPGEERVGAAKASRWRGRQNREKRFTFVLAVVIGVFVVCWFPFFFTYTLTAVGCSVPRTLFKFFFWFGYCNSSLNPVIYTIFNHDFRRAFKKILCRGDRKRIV
Experimental: To evaluate in radioligand binding assays the activity of compounds of the invention, human recombinant adrenergic α2A receptor expressed in insect Sf9 cells (Uhlen, S. et al, J. Pharmacol. Exp. Ther. 271:1558, 1994) in a modified Tris-HCl buffer (50 mM Tris-HCl, pH 7.4, 12.5 mM MgCl2, 2 mM EDTA) was used. Compounds of invention were incubated with 1 nM […] for 60 min at 25° C. MK912 is (2S-trans)-1,3,4,5′,6,6′,7,12b-octahydro-1′,3′-dimethyl-spiro[2H-benzofuro[2,3-a]quinolizine-2,4′(111)-pyrimidin]-2′(3′H)-one hydrochloride Non-specific binding was estimated in the presence of 10 μM WB-4101 (2-(2,6-Dimethoxyphenoxyethyl)aminomethyl-1,4-benzodioxane hydrochloride). Receptor proteins were filtered and washed, the filters were then counted to determine [^3H]MK-912 specifically bound. Compounds were screened at 1 μM or lower, using 1% DMSO as vehicle. Biochemical assay results are presented as the percent inhibition of specific binding in Table 3.

| Compound | inhibition at 0.1 µM [1] | inhibition at 0.1 µM [2] | inhibition at 0.1 µM [3] |
| --- | --- | --- | --- |
| C#CCC1(C)CN(C)Cc2c1n(C)c1ccc(C)cc21 (stereo not drawn) [Compound 47, 2,4,5,8-tetramethyl-4-(prop-2-ynyl)-2,3,4,5-tetrahydro-1H-pyrido[4,3-b]indole] | 32% | 8% | 15% |
| Cc1ccc2c(c1)c1c(n2C)C(C)(CCc2nc(-c3ccccc3)cs2)CN(C)C1 (stereo not drawn) [Compound 48] | -12% | 15% | 2% |
